For 70 compounds, IC50 results are on record in patent publication US8648068B2, “Heterocycloalkyl-containing thienopyrimidines for pharmaceutical compositions” (Boehringer Ingelheim International GmbH, priority 2010, dated 2014).

The target in this experiment is T1, human Mnk2a (Homo sapiens, UniProt Q9HBH9).
T1 construct: made in house; host or cells: E. coli BL21 (vector pGEX-4T1)
Briefly: Mnk2a in vitro kinase assay (indirect fluorescence polarization). It counts as biochemical. The following applies: GST-Mnk2a pre-activated with ERK2, 20 μM ATP, 30 μM substrate peptide; read-out: MNK2 IC50. The procedure, abridged: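 Indirect competitive fluorescence polarization: kinase-generated phospho-product displaces a fluorophore-labelled phospho-peptide from a phospho-specific antibody. Enzyme is N-terminal GST-Mnk2a from E. coli, activated with pre-activated ERK2 and 50 μM ATP; substrate is an amidated 12-mer peptide around eIF4E Ser209.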
(Polarisation of emitted light reports the rotation of a fluorescent probe.)

T1 sequence (Q9HBH9 whole entry): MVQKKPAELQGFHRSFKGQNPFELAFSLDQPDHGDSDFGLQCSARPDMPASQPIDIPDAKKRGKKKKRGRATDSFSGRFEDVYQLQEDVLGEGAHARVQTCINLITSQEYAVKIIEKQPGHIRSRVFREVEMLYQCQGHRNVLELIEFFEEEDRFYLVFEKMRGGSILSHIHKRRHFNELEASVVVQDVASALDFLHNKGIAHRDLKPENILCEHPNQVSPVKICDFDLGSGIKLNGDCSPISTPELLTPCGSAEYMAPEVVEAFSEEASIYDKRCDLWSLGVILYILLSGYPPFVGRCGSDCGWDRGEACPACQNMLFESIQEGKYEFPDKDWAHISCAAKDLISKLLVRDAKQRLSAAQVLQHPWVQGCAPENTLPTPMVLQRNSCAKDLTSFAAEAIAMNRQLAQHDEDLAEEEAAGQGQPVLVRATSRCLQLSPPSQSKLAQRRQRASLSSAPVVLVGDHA

The IC50 is the point on the concentration scale where inhibition reaches its midpoint. Take `COCC(C)NC(=O)c1sc2ncnc(Nc3ccc(F)cc3OC3CCOCC3)c2c1C` (stereo not shown) [Example 163]: the 50% inhibitory concentration (IC50) was 60 nM.

Turning to `Cc1c(C(=O)NCC#N)sc2ncnc(Nc3ccc(F)cc3OC3CCOCC3)c12` [Example 164], the IC50 came to 27 nM.

For `Cc1c(C(=O)NCCC(N)=O)sc2ncnc(Nc3ccc(F)cc3OC3CCOCC3)c12` [Example 165], the half-maximal inhibitory concentration (IC50) amounted to 39 nM.

For `CNC(=O)CCNC(=O)c1sc2ncnc(Nc3ccc(F)cc3OC3CCOCC3)c2c1C` [Example 166], the IC50 turned out to be 37 nM.

For `Cc1c(C(=O)NCCC(=O)N(C)C)sc2ncnc(Nc3ccc(F)cc3OC3CCOCC3)c12` [Example 167], the IC50 was found to be 43 nM.

Take `Cc1c(C(=O)NCCCCCN(C)C)sc2ncnc(Nc3ccc(F)cc3OC3CCOCC3)c12` [Example 168]: the IC50 worked out at 23 nM.

On to `Cc1c(C(=O)NCCCc2c[nH]cn2)sc2ncnc(Nc3ccc(F)cc3OC3CCOCC3)c12` [Example 169], for which the IC50 stood at 38 nM.

For the compound `Cc1c(C(=O)N[C@H]2CC[C@@](C)(O)CC2)sc2ncnc(Nc3ccc(F)cc3OC3CCOCC3)c12` [Example 170], the IC50 turned out to be 125 nM.

In the case of `Cc1c(C(=O)NCCc2cnn(C)c2)sc2ncnc(Nc3ccc(F)cc3OC3CCOCC3)c12` [Example 171], the IC50 came to 41 nM.

Take `Cc1c(C(=O)NCC2CCOCC2)sc2ncnc(Nc3ccc(F)cc3OC3CCOCC3)c12` [Example 172]: the IC50 was 43 nM.

On to `Cc1c(C(=O)N[C@H]2CC[C@H](O)CC2)sc2ncnc(Nc3ccc(F)cc3OC3CCOCC3)c12` [Example 173], for which the half-inhibitory concentration (IC50) is 39 nM.

In the case of `Cc1c(C(=O)NC2CCN(C)CC2)sc2ncnc(Nc3ccc(F)cc3OC3CCOCC3)c12` [Example 174], the IC50 came out at 60 nM.

Take `CNC(=O)CNC(=O)c1sc2ncnc(Nc3ccc(F)cc3OC3CCOCC3)c2c1C` [Example 175]: the IC50 was determined as 50 nM.

On to `Cc1c(C(=O)NCCN2CCCC2=O)sc2ncnc(Nc3ccc(F)cc3OC3CCOCC3)c12` [Example 176], for which the IC50 was determined as 105 nM.

In the case of `Cc1c(C(=O)NC2CCN(C)C2)sc2ncnc(Nc3ccc(F)cc3OC3CCOCC3)c12` (stereo not shown) [Example 177], the concentration for half-maximal inhibition (IC50) was 67 nM.

Regarding `Cc1c(C(=O)NCC2(O)CC2)sc2ncnc(Nc3ccc(F)cc3OC3CCOCC3)c12` [Example 178], the IC50 came out at 47 nM.

For the compound `Cc1c(C(=O)NCCn2cc[nH]c2=O)sc2ncnc(Nc3ccc(F)cc3OC3CCOCC3)c12` [Example 179], the IC50 was determined as 166 nM.

On to `Cc1c(C(=O)NCCS(C)(=O)=O)sc2ncnc(Nc3ccc(F)cc3OC3CCOCC3)c12` [Example 180], for which the IC50 was found to be 33 nM.

For the compound `Cc1c(C(=O)NCC#CCN(C)C)sc2ncnc(Nc3ccc(F)cc3OC3CCOCC3)c12` [Example 181], the concentration for half-maximal inhibition (IC50) amounted to 21 nM.

On to `Cc1c(C(=O)NCc2cc[nH]n2)sc2ncnc(Nc3ccc(F)cc3OC3CCOCC3)c12` [Example 182], for which the 50% inhibitory concentration (IC50) worked out at 30 nM.

On to `Cc1c(C(=O)NCCn2cccn2)sc2ncnc(Nc3ccc(F)cc3OC3CCOCC3)c12` [Example 183], for which the IC50 was 51 nM.

For `Cc1c(C(=O)NCc2cn(C)cn2)sc2ncnc(Nc3ccc(F)cc3OC3CCOCC3)c12` [Example 184], the IC50 amounted to 22 nM.

For `Cc1c(C(=O)NCc2cnco2)sc2ncnc(Nc3ccc(F)cc3OC3CCOCC3)c12` [Example 186], the concentration for half-maximal inhibition (IC50) turned out to be 30 nM.

For the compound `Cc1c(C(=O)NCc2ncco2)sc2ncnc(Nc3ccc(F)cc3OC3CCOCC3)c12` [Example 187], the IC50 turned out to be 27 nM.

For the compound `Cc1c(C(=O)NCCNS(C)(=O)=O)sc2ncnc(Nc3ccc(F)cc3OC3CCOCC3)c12` [Example 189], the IC50 was found to be 25 nM.

On to `Cc1c(C(=O)NCC(C)(C)O)sc2ncnc(Nc3ccc(F)cc3OC3CCOCC3)c12` [Example 190], for which the IC50 was 66 nM.

With `Cc1c(C(=O)N[C@H]2CC[C@@H](O)CC2)sc2ncnc(Nc3ccc(F)cc3OC3CCOCC3)c12` [Example 191], the IC50 was determined as 47 nM.

As to `Cc1c(C(=O)NC2CCCC(O)C2)sc2ncnc(Nc3ccc(F)cc3OC3CCOCC3)c12` (stereo not shown) [Example 192], the IC50 amounted to 42 nM.

As to `Cc1c(C(=O)NCCCS(C)(=O)=O)sc2ncnc(Nc3ccc(F)cc3OC3CCOCC3)c12` [Example 193], the IC50 turned out to be 33 nM.

Turning to `Cc1c(C(=O)NC2(CO)CC2)sc2ncnc(Nc3ccc(F)cc3OC3CCOCC3)c12` [Example 194], the half-inhibitory concentration (IC50) amounted to 63 nM.

Turning to `Cc1c(C(=O)NCCc2cn[nH]c2O)sc2ncnc(Nc3ccc(F)cc3OC3CCOCC3)c12` [Example 195], the IC50 came out at 67 nM.

Consider `Cc1c(C(=O)NCCS(N)(=O)=O)sc2ncnc(Nc3ccc(F)cc3OC3CCOCC3)c12` [Example 196], for which the IC50 is 34 nM.

In the case of `Cc1c(C(=O)NCC2CCCOC2)sc2ncnc(Nc3ccc(F)cc3OC3CCOCC3)c12` (stereo not shown) [Example 197], the IC50 is 28 nM.

Take `Cc1c(C(=O)NCc2cocn2)sc2ncnc(Nc3ccc(F)cc3OC3CCOCC3)c12` [Example 198]: the IC50 was found to be 29 nM.

`Cc1c(C(=O)NCC2CNC(=O)C2)sc2ncnc(Nc3ccc(F)cc3OC3CCOCC3)c12` (stereo not shown) [Example 199]: the concentration for half-maximal inhibition (IC50) was determined as 30 nM.

With `Cc1c(C(=O)NC2CN(C)C2)sc2ncnc(Nc3ccc(F)cc3OC3CCOCC3)c12` [Example 200], the concentration for half-maximal inhibition (IC50) worked out at 69 nM.

In the case of `Cc1c(C(=O)NCC(=O)N2CCCC2)sc2ncnc(Nc3ccc(F)cc3OC3CCOCC3)c12` [Example 201], the half-inhibitory concentration (IC50) was determined as 31 nM.

With `Cc1c(C(=O)NC2CCOC2)sc2ncnc(Nc3ccc(F)cc3OC3CCOCC3)c12` (stereo not shown) [Example 202], the IC50 was 70 nM.

As for `Cc1c(C(=O)NCC2(O)CCCC2)sc2ncnc(Nc3ccc(F)cc3OC3CCOCC3)c12` [Example 203], the half-maximal inhibitory concentration (IC50) was 51 nM.

Consider `Cc1c(C(=O)NCC2(C)CCN(C)C2)sc2ncnc(Nc3ccc(F)cc3OC3CCOCC3)c12` (stereo not shown) [Example 204], for which the IC50 stood at 66 nM.

Regarding `Cc1c(C(=O)NCCc2ccccn2)sc2ncnc(Nc3ccc(F)cc3OC3CCOCC3)c12` [Example 206], the IC50 was determined as 43 nM.

As for `Cc1c(C(=O)NCCc2cccnc2)sc2ncnc(Nc3ccc(F)cc3OC3CCOCC3)c12` [Example 207], the half-maximal inhibitory concentration (IC50) worked out at 41 nM.

For the compound `Cc1c(C(=O)NCCc2ccncc2)sc2ncnc(Nc3ccc(F)cc3OC3CCOCC3)c12` [Example 208], the IC50 amounted to 59 nM.

For `Cc1c(C(=O)NCCN2CCCC2)sc2ncnc(Nc3ccc(F)cc3OC3CCOCC3)c12` [Example 209], the IC50 came to 69 nM.

Turning to `Cc1c(C(=O)NCCOCCO)sc2ncnc(Nc3ccc(F)cc3OC3CCOCC3)c12` [Example 210], the IC50 amounted to 60 nM.

For the compound `Cc1c(C(=O)NCCO)sc2ncnc(Nc3ccc(F)cc3OC3CCOCC3)c12` [Example 211], the half-maximal inhibitory concentration (IC50) amounted to 29 nM.

Consider `Cc1c(C(=O)NCCCN2CCOCC2)sc2ncnc(Nc3ccc(F)cc3OC3CCOCC3)c12` [Example 212], for which the IC50 turned out to be 31 nM.

In the case of `Cc1c(C(=O)NCc2cccnc2)sc2ncnc(Nc3ccc(F)cc3OC3CCOCC3)c12` [Example 213], the IC50 amounted to 21 nM.

As to `Cc1c(C(=O)NCCN2CCNC2=O)sc2ncnc(Nc3ccc(F)cc3OC3CCOCC3)c12` [Example 214], the half-inhibitory concentration (IC50) is 76 nM.

As to `COCCCNC(=O)c1sc2ncnc(Nc3ccc(F)cc3OC3CCOCC3)c2c1C` [Example 215], the IC50 was 30 nM.

For the compound `Cc1c(C(=O)NCC(C)(C)CO)sc2ncnc(Nc3ccc(F)cc3OC3CCOCC3)c12` [Example 216], the half-inhibitory concentration (IC50) came to 54 nM.

On to `Cc1c(C(=O)NCC2CCCO2)sc2ncnc(Nc3ccc(F)cc3OC3CCOCC3)c12` (stereo not shown) [Example 217], for which the 50% inhibitory concentration (IC50) was 49 nM.

For `CCOCCCNC(=O)c1sc2ncnc(Nc3ccc(F)cc3OC3CCOCC3)c2c1C` [Example 218], the concentration for half-maximal inhibition (IC50) is 33 nM.

As to `Cc1c(C(=O)NCc2ccccn2)sc2ncnc(Nc3ccc(F)cc3OC3CCOCC3)c12` [Example 219], the IC50 came out at 33 nM.

In the case of `Cc1c(C(=O)NCCCn2ccnc2)sc2ncnc(Nc3ccc(F)cc3OC3CCOCC3)c12` [Example 220], the concentration for half-maximal inhibition (IC50) was 42 nM.

For the compound `Cc1c(C(=O)NCc2ccncc2)sc2ncnc(Nc3ccc(F)cc3OC3CCOCC3)c12` [Example 221], the IC50 was found to be 38 nM.

Take `Cc1c(C(=O)NCCN2CCCCC2)sc2ncnc(Nc3ccc(F)cc3OC3CCOCC3)c12` [Example 222]: the IC50 is 51 nM.

With `CCN(CC)CCCNC(=O)c1sc2ncnc(Nc3ccc(F)cc3OC3CCOCC3)c2c1C` [Example 223], the IC50 came to 2290 nM.

Take `CCC(CO)NC(=O)c1sc2ncnc(Nc3ccc(F)cc3OC3CCOCC3)c2c1C` (stereo not shown) [Example 224]: the concentration for half-maximal inhibition (IC50) amounted to 63 nM.

`Cc1c(C(=O)NC2(CO)CCCC2)sc2ncnc(Nc3ccc(F)cc3OC3CCOCC3)c12` [Example 225]: the IC50 came out at 53 nM.

For `Cc1c(C(=O)NC(C)(C)CO)sc2ncnc(Nc3ccc(F)cc3OC3CCOCC3)c12` [Example 226], the 50% inhibitory concentration (IC50) was found to be 55 nM.

Regarding `CCNC(=O)c1sc2ncnc(Nc3ccc(F)cc3OC3CCOCC3)c2c1C` [Example 227], the IC50 amounted to 47 nM.

With `Cc1c(C(=O)NCCC#N)sc2ncnc(Nc3ccc(F)cc3OC3CCOCC3)c12` [Example 228], the IC50 worked out at 35 nM.

Regarding `C#CCNC(=O)c1sc2ncnc(Nc3ccc(F)cc3OC3CCOCC3)c2c1C` [Example 229], the IC50 turned out to be 27 nM.

For the compound `CC(=O)NCCNC(=O)c1sc2ncnc(Nc3ccc(F)cc3OC3CCOCC3)c2c1C` [Example 230], the IC50 was found to be 49 nM.

Consider `Cc1c(C(=O)NCc2ncc[nH]2)sc2ncnc(Nc3ccc(F)cc3OC3CCOCC3)c12` [Example 231], for which the half-inhibitory concentration (IC50) was 18 nM.

Turning to `Cc1c(C(=O)NCCOC(C)C)sc2ncnc(Nc3ccc(F)cc3OC3CCOCC3)c12` [Example 232], the half-maximal inhibitory concentration (IC50) stood at 45 nM.

`Cc1c(C(=O)NCCc2c[nH]cn2)sc2ncnc(Nc3ccc(F)cc3OC3CCOCC3)c12` [Example 233]: the half-maximal inhibitory concentration (IC50) was 27 nM.

For the compound `CSCCNC(=O)c1sc2ncnc(Nc3ccc(F)cc3OC3CCOCC3)c2c1C` [Example 234], the IC50 amounted to 90 nM.

With `Cc1c(C(=O)NS(C)(=O)=O)sc2ncnc(Nc3ccc(F)cc3OC3CCOCC3)c12` [Example 235], the half-maximal inhibitory concentration (IC50) was found to be 12 nM.
